The kinase profiling compilation of Christmann-Franck et al. (2016)

Columns and labels:
Test in all cases: radiometric filter-binding kinase assay
[1] = molecular target: DYRK2 (human) (UniProt Q92630)
[2] = molecular target: MAP3K5 (human) (UniProt Q99683)
[3] = molecular target: MAP2K6 (human) (UniProt P52564)
[4] = molecular target: PKN2 (human) (UniProt Q16513)
[5] = molecular target: BRSK1 (human) (UniProt Q8TDC3)
[6] = molecular target: PRKCZ (human) (UniProt Q05513)
[7] = molecular target: NTRK1 (human) (UniProt P04629)
[8] = molecular target: MAP2K2 (human) (UniProt P36507)
[9] = tested on: AKT1 (human), P31749 [S473D]
[10] = molecular target: MAP3K7 TAB1 (human) (UniProt Q15750+O43318)
[11] = molecular target: STK11 CAB39 STRADA (human) (UniProt Q9Y376+Q7RTN6+Q15831)
[12] = molecular target: MARK4 (human) (UniProt Q96L34)
[13] = molecular target: AURKA (human) (UniProt O14965)
[14] = molecular target: PIM1 (human) (UniProt P11309)
[15] = molecular target: MAPK9 (human) (UniProt P45984)
[16] = molecular target: ERBB4 (human) (UniProt Q15303)
[17] = molecular target: PRKCA (human) (UniProt P17252)
[18] = molecular target: EPHA2 (human) (UniProt P29317)

AURKA (human), sequence (O14965 whole entry, looked up): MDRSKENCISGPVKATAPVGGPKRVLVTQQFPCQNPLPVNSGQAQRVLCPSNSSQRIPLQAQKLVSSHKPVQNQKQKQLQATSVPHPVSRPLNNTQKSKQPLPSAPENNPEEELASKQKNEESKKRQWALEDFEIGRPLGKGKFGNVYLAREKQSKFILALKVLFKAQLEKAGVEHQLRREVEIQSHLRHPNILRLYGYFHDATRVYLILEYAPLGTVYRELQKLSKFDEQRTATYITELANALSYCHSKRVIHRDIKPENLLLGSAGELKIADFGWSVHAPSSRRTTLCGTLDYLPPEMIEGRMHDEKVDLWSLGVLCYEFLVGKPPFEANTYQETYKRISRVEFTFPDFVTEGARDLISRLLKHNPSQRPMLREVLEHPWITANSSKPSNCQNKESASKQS
MAP3K7 TAB1 (human), sequence (O43318 whole entry, looked up): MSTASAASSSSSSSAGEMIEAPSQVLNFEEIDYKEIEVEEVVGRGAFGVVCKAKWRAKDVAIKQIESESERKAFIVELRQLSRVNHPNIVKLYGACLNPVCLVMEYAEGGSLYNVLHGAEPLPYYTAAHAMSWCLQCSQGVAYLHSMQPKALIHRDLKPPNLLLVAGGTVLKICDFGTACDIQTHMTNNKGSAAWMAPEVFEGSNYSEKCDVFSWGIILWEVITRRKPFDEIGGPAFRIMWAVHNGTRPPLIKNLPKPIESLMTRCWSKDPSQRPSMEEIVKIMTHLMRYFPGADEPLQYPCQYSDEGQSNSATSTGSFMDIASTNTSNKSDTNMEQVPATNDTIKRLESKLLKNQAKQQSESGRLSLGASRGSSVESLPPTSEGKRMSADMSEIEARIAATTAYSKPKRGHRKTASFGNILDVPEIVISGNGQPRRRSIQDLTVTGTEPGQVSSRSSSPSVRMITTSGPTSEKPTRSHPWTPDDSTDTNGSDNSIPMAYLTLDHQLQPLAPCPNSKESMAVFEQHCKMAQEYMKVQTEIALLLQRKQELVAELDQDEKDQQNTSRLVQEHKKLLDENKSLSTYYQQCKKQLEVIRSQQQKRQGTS
MAP3K7 TAB1 (human), sequence (Q15750 whole entry, looked up): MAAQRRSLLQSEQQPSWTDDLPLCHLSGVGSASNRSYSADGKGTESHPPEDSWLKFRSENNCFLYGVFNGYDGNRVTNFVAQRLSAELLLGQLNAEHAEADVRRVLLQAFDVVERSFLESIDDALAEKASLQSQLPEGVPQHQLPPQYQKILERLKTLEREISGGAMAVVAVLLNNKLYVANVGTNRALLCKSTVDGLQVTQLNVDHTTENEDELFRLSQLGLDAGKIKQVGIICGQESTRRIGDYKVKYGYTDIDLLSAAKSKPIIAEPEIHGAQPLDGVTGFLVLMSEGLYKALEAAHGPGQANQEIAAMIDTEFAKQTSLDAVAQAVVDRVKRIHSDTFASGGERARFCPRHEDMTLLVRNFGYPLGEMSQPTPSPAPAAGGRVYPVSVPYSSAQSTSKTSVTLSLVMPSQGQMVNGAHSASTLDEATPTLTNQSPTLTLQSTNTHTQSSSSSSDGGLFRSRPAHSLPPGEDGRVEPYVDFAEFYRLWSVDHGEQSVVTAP
MAP2K6 (human), sequence (P52564 whole entry, looked up): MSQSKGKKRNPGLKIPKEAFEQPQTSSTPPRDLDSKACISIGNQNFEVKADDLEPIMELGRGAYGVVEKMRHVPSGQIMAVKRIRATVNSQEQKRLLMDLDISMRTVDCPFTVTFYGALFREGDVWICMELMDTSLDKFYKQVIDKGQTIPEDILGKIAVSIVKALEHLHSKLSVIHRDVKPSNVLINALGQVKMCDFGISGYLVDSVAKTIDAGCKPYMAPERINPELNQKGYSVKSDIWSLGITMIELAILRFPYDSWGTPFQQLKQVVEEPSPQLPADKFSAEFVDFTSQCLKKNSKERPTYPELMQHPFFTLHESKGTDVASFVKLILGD
ERBB4 (human), sequence (Q15303 whole entry, looked up): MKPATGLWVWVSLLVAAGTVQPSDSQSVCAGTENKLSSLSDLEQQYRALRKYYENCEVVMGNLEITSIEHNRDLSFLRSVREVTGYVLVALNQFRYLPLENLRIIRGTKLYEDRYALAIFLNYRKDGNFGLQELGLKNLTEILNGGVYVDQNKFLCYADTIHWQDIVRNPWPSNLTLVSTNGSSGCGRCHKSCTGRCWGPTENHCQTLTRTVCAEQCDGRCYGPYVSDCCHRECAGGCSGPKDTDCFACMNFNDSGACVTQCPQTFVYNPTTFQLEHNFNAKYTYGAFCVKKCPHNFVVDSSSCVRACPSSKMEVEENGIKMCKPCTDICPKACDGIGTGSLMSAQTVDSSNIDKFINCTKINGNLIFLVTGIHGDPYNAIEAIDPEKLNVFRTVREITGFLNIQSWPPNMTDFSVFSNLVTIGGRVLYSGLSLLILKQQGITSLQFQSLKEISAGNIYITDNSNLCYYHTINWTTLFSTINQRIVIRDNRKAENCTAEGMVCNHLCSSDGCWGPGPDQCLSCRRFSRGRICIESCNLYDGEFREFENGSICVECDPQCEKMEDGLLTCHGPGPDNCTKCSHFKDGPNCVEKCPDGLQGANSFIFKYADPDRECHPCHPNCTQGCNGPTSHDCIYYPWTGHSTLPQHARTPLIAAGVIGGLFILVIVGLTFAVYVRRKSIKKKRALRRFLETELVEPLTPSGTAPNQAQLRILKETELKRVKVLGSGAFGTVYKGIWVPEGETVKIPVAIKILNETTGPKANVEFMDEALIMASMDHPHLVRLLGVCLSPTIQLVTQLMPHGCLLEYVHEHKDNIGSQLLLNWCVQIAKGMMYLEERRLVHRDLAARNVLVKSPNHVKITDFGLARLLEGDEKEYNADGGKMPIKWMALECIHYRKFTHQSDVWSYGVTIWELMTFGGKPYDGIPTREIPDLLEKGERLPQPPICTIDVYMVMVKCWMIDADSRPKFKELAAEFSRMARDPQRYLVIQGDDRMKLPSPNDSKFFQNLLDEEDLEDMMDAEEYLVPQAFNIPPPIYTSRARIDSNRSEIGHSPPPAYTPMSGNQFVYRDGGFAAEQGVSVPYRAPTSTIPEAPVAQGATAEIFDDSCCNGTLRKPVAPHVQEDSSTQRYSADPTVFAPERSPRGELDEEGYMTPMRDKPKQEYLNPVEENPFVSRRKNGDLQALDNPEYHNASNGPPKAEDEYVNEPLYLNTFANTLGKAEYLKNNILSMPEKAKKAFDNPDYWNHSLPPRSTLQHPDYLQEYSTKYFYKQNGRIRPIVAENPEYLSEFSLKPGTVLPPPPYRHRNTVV
STK11 CAB39 STRADA (human), sequence (Q15831 whole entry, looked up): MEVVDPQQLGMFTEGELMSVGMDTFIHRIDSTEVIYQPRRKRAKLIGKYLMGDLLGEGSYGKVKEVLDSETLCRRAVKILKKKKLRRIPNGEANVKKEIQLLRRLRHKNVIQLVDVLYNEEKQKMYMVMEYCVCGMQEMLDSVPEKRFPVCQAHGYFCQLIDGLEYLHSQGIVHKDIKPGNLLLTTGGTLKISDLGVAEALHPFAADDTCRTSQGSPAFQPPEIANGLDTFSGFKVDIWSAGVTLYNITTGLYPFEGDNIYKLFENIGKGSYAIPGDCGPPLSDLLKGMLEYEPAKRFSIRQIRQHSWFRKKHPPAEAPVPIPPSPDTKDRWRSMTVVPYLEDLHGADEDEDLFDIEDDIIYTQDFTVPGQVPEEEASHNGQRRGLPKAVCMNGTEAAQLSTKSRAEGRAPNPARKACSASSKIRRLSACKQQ
STK11 CAB39 STRADA (human), sequence (Q7RTN6 whole entry, looked up): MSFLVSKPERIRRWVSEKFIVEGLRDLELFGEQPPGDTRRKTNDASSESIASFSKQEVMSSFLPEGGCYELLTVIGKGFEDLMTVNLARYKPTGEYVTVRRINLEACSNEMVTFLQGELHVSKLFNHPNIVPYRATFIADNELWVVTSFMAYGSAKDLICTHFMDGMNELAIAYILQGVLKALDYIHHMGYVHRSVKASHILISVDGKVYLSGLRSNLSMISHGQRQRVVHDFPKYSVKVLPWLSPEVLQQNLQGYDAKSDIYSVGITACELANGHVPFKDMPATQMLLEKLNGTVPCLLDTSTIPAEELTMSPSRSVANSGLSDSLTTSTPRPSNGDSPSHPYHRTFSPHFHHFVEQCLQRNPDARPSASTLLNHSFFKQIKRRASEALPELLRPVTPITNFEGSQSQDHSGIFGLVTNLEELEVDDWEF
STK11 CAB39 STRADA (human), sequence (Q9Y376 whole entry, looked up): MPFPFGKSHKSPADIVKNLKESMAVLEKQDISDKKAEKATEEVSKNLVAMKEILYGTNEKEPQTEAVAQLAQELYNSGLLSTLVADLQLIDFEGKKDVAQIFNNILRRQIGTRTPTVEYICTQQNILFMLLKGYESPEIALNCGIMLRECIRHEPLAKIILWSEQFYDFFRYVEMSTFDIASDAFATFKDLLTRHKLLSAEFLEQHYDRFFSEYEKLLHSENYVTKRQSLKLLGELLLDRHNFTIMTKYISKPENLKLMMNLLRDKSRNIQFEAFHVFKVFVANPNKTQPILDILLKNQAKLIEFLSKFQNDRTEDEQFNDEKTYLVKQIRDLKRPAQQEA
MAPK9 (human), sequence (P45984 whole entry, looked up): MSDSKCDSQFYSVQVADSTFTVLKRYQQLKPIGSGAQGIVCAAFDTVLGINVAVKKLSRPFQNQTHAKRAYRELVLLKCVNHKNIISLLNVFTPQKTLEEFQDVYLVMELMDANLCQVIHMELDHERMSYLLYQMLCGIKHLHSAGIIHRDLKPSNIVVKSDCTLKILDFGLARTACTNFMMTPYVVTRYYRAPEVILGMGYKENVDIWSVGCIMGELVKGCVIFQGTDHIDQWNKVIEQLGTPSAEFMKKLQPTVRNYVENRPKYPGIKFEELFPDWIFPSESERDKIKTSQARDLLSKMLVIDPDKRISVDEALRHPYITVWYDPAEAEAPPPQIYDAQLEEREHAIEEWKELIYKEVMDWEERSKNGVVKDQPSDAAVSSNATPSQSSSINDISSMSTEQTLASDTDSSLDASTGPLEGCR

## c1ccc2c(-c3cnn4cc(-c5ccc(N6CCNCC6)cc5)cnc34)ccnc2c1
[1]; compound 1.0 µM
  residual activity: 107%
[1]; compound 10.0 µM
  residual activity: 77%
[2]; compound 0.1 µM
  residual activity: 93%
[2]; compound 1.0 µM
  residual activity: 90%
[2]; compound 10.0 µM
  residual activity: 91%
[3]; compound 0.1 µM
  residual activity: 87%
[3]; compound 1.0 µM
  residual activity: 89%
[3]; compound 10.0 µM
  residual activity: 104%
[4]; compound 0.1 µM
  residual activity: 65%
[4]; compound 1.0 µM
  residual activity: 69%
[4]; compound 10.0 µM
  residual activity: 37%
[5]; compound 0.1 µM
  residual activity: 88%
[5]; compound 1.0 µM
  residual activity: 85%
[5]; compound 10.0 µM
  residual activity: 57%
[6]; compound 0.1 µM
  residual activity: 88%
[6]; compound 1.0 µM
  residual activity: 93%
[6]; compound 10.0 µM
  residual activity: 55%
[7]; compound 0.1 µM
  residual activity: 87%
[7]; compound 1.0 µM
  residual activity: 71%
[7]; compound 10.0 µM
  residual activity: 38%
[8]; compound 0.1 µM
  residual activity: 88%
[8]; compound 1.0 µM
  residual activity: 91%
[8]; compound 10.0 µM
  residual activity: 52%
[9]; compound 0.1 µM
  residual activity: 102%
[9]; compound 1.0 µM
  residual activity: 103%
[10]; compound 0.1 µM
  residual activity: 84%
[10]; compound 1.0 µM
  residual activity: 44%
[10]; compound 10.0 µM
  residual activity: 13%
[11]; compound 0.1 µM
  residual activity: 109%
[11]; compound 1.0 µM
  residual activity: 98%
[11]; compound 10.0 µM
  residual activity: 80%
[12]; compound 0.1 µM
  residual activity: 75%
[12]; compound 1.0 µM
  residual activity: 58%
[12]; compound 10.0 µM
  residual activity: 24%
[13]; compound 0.1 µM
  residual activity: 100%
[13]; compound 1.0 µM
  residual activity: 91%
[13]; compound 10.0 µM
  residual activity: 56%
[14]; compound 0.1 µM
  residual activity: 83%
[14]; compound 1.0 µM
  residual activity: 83%
[14]; compound 10.0 µM
  residual activity: 82%
[15]; compound 0.1 µM
  residual activity: 88%
[15]; compound 1.0 µM
  residual activity: 103%
[15]; compound 10.0 µM
  residual activity: 83%
[16]; compound 0.1 µM
  residual activity: 88%
[16]; compound 1.0 µM
  residual activity: 76%
[16]; compound 10.0 µM
  residual activity: 56%
[17]; compound 0.1 µM
  residual activity: 92%
[17]; compound 1.0 µM
  residual activity: 96%
[17]; compound 10.0 µM
  residual activity: 88%
[18]; compound 0.1 µM
  residual activity: 81%
[18]; compound 1.0 µM
  residual activity: 81%
[18]; compound 10.0 µM
  residual activity: 50%
